Measured values published in patent US9289471B2, “Product and process for liquefaction of mucus or sputum” (National Jewish Health, priority 2002, dated 2016).

How the values were obtained:
[1] = Compaction assay: percent liquid fraction of CF sputum; parameters: species or system human; conditions: for percent liquid fraction: 20 min (FIG. 3A)
Description: CF sputum stored at −80° C. was thawed at room temperature and aliquoted into 1.5 ml Eppendorf centrifuge tubes at volumes of 275 μl using a positive displacement pipette (Rainin, Emeryville, Calif.). Sputum samples were subjected to either diluent (H2O), Trx+TR+NADPH, GSH+glutathione reductase+NADPH, dithiothreitol (DTT) or N-acetylcysteine treatment by the addition of 25 μl of H2O containing the appropriate molar concentration of each agent. After brief vortexing (˜1 second), sample tubes were loaded onto a microtube rotisserie (Barnstead, Dubuque, Iowa) and incubated at 37° C. for 20 minutes. Samples were then processed for compaction assay according to methodology originated by Daugherty et al. (Daugherty et al., Biomaterials 16:553-558, 1995). To perform the assay, the contents of each sample were loaded into 100 μl glass micro-capillary tubes (Fisher Scientific) that had been previously welded to 200 μl pipette tips in order to achieve a tight fit. Three modified capillary tubes were used to draw up >90% of each sputum sample. Capillary tubes were then removed from their pipette tip, sealed with clay, and centrifuged for 10 minutes in a hematocrit centrifuge (IEC, Needham Heights, Mass.), followed by measurement of the length in millimeters of the gel (solid) and aqueous (liquid) phases in each tube. The percent liquid fraction of each capillary tube was calculated by dividing aqueous phase length by total length (gel+aqueous)×100. The three measurements of the liquid fraction (%) derived from each sample were then averaged to generate a single value for each treatment condition.
Due to abnormal ion transport caused by defects in the CFTR gene, airway secretions in CF patients are often desiccated. As a consequence, purulent CF sputum is comprised largely of a rigid and nonflowing biopolymer matrix, often referred to as gel phase, and lesser amounts of soluble, liquid phase. To assess the effect of Trx on the ratios of these two phases in sputum, compaction assay measurements were performed. […] After 20 minute incubation, the liquid fraction of each sample was determined by compaction assay.
To examine the effect of NADPH, additional samples from different donors were treated with 30 μM Trx, 0.1 μM TR and either 0, 0.2, 0.6, 1.0 or 2 mM NADPH for 20 minutes.
To assess the reproducibility of compaction assay measurements, sputum samples from three different CF donors were separated into aliquots and frozen. Specifically, freshly isolated CF sputum from three different donors (A, B, C) was separated into 275 μl aliquots and frozen. […] Results obtained from three independent experiments performed on each donor sample were used to evaluate assay reproducibility. On three consecutive days, aliquots were thawed, and treated with water, Trx and its reducing system, dithiothreitol (DTT), or no treatment.
The effectiveness of Trx in liquefying sputum was compared with other monothiol and dithiol reducing agents. Sputum samples were aliquoted and treated with Trx or GSH for 20 minutes and percent liquid determined by compaction assay. Initial compaction assay experiments compared the potencies of the Trx and GSH reducing systems in liquefaction of sputum in the presence of equimolar concentrations of NADPH. […] The analysis of Trx and NAC efficacy also was determined after 20 minute incubation, but on a different set of sputum samples.

[2] = Glycoprotein content of sputum aqueous and gel phases by PAS staining; parameters: species or system human; conditions: 10 or 30 μM Trx with reducing system, 20 min (FIG. 5)
Description: Extraction of soluble glycoproteins from sputum was performed according to methodology outlined by Davies et al. (Davies and Carlstedt, Methods Mol Biol 125:3-13, 2000). 275 μl of CF sputum was treated for 20 minutes at 37° C. with 25 μl of H2O alone or H2O containing Trx (10 or 30 μM)+NADPH (2 mM) and TR (0.1 μM). After treatment, 100 μl of H2O containing 1 mM disopropylflurophosphate and 10 μg ml aprotinin, was added to each sample, followed by 15 minute centrifugation at 22,000 g at 4° C. The resulting supernatant (aqueous phase) of each sample was transferred to a new microcentrifuge tube and stored at −20° C. […]
The glycoprotein content of aqueous and gel phase samples were evaluated by staining with periodic acid Schiff reagent (PAS) according to methodology outlined by Thornton et al. (Thornton et al., Methods Mol Biol 125:77-85, 2000). […]
Disulfide bonds on mucin glycoprotein polymers are potential targets for reduction by Trx. […] After treatment, the resulting soluble and insoluble phases of each sample were separated and analyzed for glycoprotein content by periodic acid/Schiff reagent (PAS) staining Specifically, fractions were loaded and electrophoresed in a 1% agarose (w/v) gel, transferred to PVDF membrane, and stained with periodic acid/Schiff reagent as described in materials and methods. […]

## Trx: Lyophilized recombinant E. coli Trx from Promega; protein disulfide reductase, used with its reducing system (TR + NADPH)
[1]; 10 μM Trx + 0.1 μM TR + 2 mM NADPH
  percent liquid fraction: 34.8±6.6%
[1]; 30 μM Trx + 0.1 μM TR + 2 mM NADPH
  percent liquid fraction: 54.6±10.4%
[1]; 30 μM Trx + 0.1 μM TR + 2 mM NADPH, 20 min, different donors (FIG. 1B)
  percentage of sputum present in the liquid phase: 70.55±18.13%
[1]; 30 μM Trx + 0.1 μM TR without NADPH, 20 min (FIG. 1B)
  percentage of sputum present in the liquid phase: 2.9%±1.3
[1]; 60 μM Trx + 0.1 μM TR + 2 mM NADPH
  percent liquid fraction: 67.0±8.0%
[1]; donor B, 30 μM Trx with reducing system
  3 day range of percent of sputum in the liquid state: 46-51%
[1]; donor C, 30 μM Trx with reducing system
  range of percent liquid values: 62-81%
[2]
  amount of PAS-reactive glycoproteins in soluble and gel phases versus diluent: greater amounts of PAS-reactive glycoproteins
  electrophoretic mobility of glycoforms versus diluent-treated samples: greater electrophoretic mobility
